Measurements as given in PMC5666424, “Marine-Derived 2-Aminoimidazolone Alkaloids. Leucettamine B-Related Polyandrocarpamines Inhibit Mammalian and Protozoan DYRK & CLK Kinases” (Marine Drugs, 2017).

Legend:
Assay in all cases: KinomeScan
Type in all cases: binding
Conditions in all cases: 1 μM
AAK1 = target: T1, AAK1 (Homo sapiens, UniProt Q2M2I8)
T1 construct: purchased DiscoverX (KINOMEscan)

[1] = target: T2, ABL1(Q252H)-nonphosphorylated (Homo sapiens, UniProt P00519, Q252H)
T2 construct: purchased DiscoverX (KINOMEscan)

ACVR1B = target: T3, ACVR1B (Homo sapiens, UniProt P36896)
T3 construct: purchased DiscoverX (KINOMEscan)

AURKB = target: T4, AURKB (Homo sapiens, UniProt Q96GD4)
T4 construct: purchased DiscoverX (KINOMEscan)

BMPR1A = target: T5, BMPR1A (Homo sapiens, UniProt P36894)
T5 construct: purchased DiscoverX (KINOMEscan)

BRK = target: T6, BRK (Homo sapiens, UniProt Q13882)
T6 construct: purchased DiscoverX (KINOMEscan)

BRSK1 = target: T7, BRSK1 (Homo sapiens, UniProt Q8TDC3)
T7 construct: purchased DiscoverX (KINOMEscan)

CAMKK1 = target: T8, CAMKK1 (Homo sapiens, UniProt Q8N5S9)
T8 construct: purchased DiscoverX (KINOMEscan)

CDK11 = target: T9, CDK11 (Homo sapiens, UniProt Q9BWU1)
T9 construct: purchased DiscoverX (KINOMEscan)

CDKL3 = target: T10, CDKL3 (Homo sapiens, UniProt Q8IVW4)
T10 construct: purchased DiscoverX (KINOMEscan)

CSNK1A1L = target: T11, CSNK1A1L (Homo sapiens, UniProt Q8N752)
T11 construct: purchased DiscoverX (KINOMEscan)

CSNK1G1 = target: T12, CSNK1G1 (Homo sapiens, UniProt Q9HCP0)
T12 construct: purchased DiscoverX (KINOMEscan)

DLK = target: T13, DLK (Homo sapiens, UniProt Q12852)
T13 construct: purchased DiscoverX (KINOMEscan)

DRAK1 = target: T14, DRAK1 (Homo sapiens, UniProt Q9UEE5)
T14 construct: purchased DiscoverX (KINOMEscan)

EGFR(T790M) = target: T15, EGFR(T790M) (Homo sapiens, UniProt P00533, T790M)
T15 construct: purchased DiscoverX (KINOMEscan)

ERK4 = target: T16, ERK4 (Homo sapiens, UniProt P31152)
T16 construct: purchased DiscoverX (KINOMEscan)

IKK-beta = target: T17, IKK-beta (Homo sapiens, UniProt O14920)
T17 construct: purchased DiscoverX (KINOMEscan)

IRAK1 = target: T18, IRAK1 (Homo sapiens, UniProt P51617)
T18 construct: purchased DiscoverX (KINOMEscan)

JNK3 = target: T19, JNK3 (Homo sapiens, UniProt P53779)
T19 construct: purchased DiscoverX (KINOMEscan)

KIT(L576P) = target: T20, KIT(L576P) (Homo sapiens, UniProt P10721, L576P)
T20 construct: purchased DiscoverX (KINOMEscan)

KIT(V559D,T670I) = target: T21, KIT(V559D,T670I) (Homo sapiens, UniProt P10721, T670I/V559D)
T21 construct: purchased DiscoverX (KINOMEscan)

LIMK2 = target: T22, LIMK2 (Homo sapiens, UniProt P53671)
T22 construct: purchased DiscoverX (KINOMEscan)

MAP3K15 = target: T23, MAP3K15 (Homo sapiens, UniProt Q6ZN16)
T23 construct: purchased DiscoverX (KINOMEscan)

MARK1 = target: T24, MARK1 (Homo sapiens, UniProt Q9P0L2)
T24 construct: purchased DiscoverX (KINOMEscan)

MEK4 = target: T25, MEK4 (Homo sapiens, UniProt P45985)
T25 construct: purchased DiscoverX (KINOMEscan)

MKNK1 = target: T26, MKNK1 (Homo sapiens, UniProt Q9BUB5)
T26 construct: purchased DiscoverX (KINOMEscan)

MRCKB = target: T27, MRCKB (Homo sapiens, UniProt Q9Y5S2)
T27 construct: purchased DiscoverX (KINOMEscan)

MYLK4 = target: T28, MYLK4 (Homo sapiens, UniProt Q86YV6)
T28 construct: purchased DiscoverX (KINOMEscan)

NEK4 = target: T29, NEK4 (Homo sapiens, UniProt P51957)
T29 construct: purchased DiscoverX (KINOMEscan)

STK36 = target: T30, STK36 (Homo sapiens, UniProt Q9NRP7)
T30 construct: purchased DiscoverX (KINOMEscan)

SYK = target: T31, SYK (Homo sapiens, UniProt P43405)
T31 construct: purchased DiscoverX (KINOMEscan)

TIE2 = target: T32, TIE2 (Homo sapiens, UniProt Q02763)
T32 construct: purchased DiscoverX (KINOMEscan)

TNK1 = target: T33, TNK1 (Homo sapiens, UniProt Q13470)
T33 construct: purchased DiscoverX (KINOMEscan)

TTK = target: T34, TTK (Homo sapiens, UniProt P33981)
T34 construct: purchased DiscoverX (KINOMEscan)

TXK = target: T35, TXK (Homo sapiens, UniProt P42681)
T35 construct: purchased DiscoverX (KINOMEscan)

[2] = target: T36, TYK2(JH1domain-catalytic) (Homo sapiens, UniProt P29597)
T36 construct: TYK2(JH1domain-catalytic); purchased DiscoverX (KINOMEscan)

p38-alpha = target: T37, p38-alpha (Homo sapiens, UniProt Q16539)
T37 construct: purchased DiscoverX (KINOMEscan)

T28 sequence (Q86YV6 whole entry): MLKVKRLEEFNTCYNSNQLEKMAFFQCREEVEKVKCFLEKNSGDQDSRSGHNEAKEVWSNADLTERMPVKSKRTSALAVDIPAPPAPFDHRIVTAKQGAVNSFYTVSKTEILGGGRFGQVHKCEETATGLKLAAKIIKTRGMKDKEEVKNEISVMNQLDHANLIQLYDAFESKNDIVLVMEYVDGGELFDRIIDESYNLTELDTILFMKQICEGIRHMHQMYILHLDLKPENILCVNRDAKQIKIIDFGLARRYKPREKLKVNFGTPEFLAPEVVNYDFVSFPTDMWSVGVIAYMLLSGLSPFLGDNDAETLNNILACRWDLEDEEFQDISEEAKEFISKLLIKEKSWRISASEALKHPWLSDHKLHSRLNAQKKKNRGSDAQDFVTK
T34 sequence (P33981 whole entry): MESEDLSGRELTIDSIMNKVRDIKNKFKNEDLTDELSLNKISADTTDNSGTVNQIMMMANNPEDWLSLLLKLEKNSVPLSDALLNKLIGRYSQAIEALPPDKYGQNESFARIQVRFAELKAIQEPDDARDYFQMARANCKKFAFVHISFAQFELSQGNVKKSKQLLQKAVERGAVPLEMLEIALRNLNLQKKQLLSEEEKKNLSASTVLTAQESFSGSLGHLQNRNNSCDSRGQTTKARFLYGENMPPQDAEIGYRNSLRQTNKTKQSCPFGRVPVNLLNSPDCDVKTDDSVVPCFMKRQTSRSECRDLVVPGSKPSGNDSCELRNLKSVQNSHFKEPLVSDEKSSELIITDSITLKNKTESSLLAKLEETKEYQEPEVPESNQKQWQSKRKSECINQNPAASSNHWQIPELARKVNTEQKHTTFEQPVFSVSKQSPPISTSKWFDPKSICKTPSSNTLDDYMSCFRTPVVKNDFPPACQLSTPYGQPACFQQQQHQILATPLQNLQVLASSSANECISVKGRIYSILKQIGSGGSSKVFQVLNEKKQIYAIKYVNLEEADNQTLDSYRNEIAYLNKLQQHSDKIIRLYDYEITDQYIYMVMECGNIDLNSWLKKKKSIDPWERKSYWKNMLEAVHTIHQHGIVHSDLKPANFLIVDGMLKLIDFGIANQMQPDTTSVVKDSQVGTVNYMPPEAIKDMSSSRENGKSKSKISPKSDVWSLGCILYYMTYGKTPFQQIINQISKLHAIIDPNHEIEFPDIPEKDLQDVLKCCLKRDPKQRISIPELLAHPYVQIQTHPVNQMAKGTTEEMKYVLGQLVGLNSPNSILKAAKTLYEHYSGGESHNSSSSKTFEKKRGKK
T30 sequence (Q9NRP7 whole entry): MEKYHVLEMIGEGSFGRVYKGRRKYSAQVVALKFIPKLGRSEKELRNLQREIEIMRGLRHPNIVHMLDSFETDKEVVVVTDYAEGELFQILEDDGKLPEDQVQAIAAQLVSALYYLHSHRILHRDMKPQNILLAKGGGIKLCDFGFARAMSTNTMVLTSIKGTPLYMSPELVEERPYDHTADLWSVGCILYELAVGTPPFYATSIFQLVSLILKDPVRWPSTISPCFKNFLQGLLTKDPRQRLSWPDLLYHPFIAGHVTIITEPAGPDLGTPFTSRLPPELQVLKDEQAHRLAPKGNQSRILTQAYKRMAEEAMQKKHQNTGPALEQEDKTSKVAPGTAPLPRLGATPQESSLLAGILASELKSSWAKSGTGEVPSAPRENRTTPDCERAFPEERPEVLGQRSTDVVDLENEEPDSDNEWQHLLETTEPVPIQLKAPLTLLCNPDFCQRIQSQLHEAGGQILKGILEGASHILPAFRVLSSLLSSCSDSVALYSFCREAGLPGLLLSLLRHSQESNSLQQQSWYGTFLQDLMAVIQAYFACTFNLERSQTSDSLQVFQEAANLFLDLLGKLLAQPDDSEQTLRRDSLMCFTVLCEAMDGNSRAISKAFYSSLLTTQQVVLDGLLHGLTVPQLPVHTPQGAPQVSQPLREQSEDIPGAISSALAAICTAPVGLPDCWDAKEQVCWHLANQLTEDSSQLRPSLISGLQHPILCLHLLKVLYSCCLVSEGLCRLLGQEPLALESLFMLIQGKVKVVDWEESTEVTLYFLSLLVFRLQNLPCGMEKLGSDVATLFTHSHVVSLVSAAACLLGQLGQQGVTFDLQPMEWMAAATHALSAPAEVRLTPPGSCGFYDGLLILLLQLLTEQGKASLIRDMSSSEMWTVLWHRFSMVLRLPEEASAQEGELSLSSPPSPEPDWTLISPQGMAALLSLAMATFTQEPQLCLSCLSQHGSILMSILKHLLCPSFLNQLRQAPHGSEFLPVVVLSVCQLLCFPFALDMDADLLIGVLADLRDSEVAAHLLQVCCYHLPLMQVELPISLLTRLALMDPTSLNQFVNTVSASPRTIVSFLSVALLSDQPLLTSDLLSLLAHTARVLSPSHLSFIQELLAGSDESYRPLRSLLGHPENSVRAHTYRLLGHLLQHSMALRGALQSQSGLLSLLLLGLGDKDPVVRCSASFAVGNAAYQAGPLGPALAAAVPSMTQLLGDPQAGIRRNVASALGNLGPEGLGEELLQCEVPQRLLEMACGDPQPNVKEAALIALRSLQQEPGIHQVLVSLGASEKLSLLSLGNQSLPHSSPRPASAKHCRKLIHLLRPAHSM
T33 sequence (Q13470 whole entry): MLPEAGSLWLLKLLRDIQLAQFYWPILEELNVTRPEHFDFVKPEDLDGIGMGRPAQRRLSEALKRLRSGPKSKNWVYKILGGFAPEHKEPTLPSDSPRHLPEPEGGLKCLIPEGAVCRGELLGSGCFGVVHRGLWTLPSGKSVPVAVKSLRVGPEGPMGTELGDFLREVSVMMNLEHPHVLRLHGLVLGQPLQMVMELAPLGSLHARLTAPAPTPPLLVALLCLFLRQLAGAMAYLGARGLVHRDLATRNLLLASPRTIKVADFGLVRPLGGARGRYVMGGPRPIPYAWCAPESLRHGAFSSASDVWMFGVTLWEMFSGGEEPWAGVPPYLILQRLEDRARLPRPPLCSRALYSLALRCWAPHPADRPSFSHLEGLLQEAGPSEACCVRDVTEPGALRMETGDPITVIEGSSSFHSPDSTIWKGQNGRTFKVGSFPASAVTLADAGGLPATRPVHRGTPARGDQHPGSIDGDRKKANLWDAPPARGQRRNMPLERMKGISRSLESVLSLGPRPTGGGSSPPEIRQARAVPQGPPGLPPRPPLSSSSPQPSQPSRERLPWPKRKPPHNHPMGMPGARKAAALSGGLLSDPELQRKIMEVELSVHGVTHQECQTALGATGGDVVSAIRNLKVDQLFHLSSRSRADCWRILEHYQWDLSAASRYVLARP
T12 sequence (Q9HCP0 whole entry): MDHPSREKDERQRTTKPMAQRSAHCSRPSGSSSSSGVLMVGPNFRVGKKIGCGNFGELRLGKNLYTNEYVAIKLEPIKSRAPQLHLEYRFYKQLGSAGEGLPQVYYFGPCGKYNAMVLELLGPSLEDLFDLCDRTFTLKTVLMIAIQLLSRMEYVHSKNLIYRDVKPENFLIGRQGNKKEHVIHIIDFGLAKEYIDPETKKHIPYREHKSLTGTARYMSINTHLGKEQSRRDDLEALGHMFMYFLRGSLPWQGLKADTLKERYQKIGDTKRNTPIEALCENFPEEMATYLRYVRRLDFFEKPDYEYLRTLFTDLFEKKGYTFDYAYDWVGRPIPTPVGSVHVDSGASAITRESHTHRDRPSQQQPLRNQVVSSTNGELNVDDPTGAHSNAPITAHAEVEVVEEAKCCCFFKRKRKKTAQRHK
T32 sequence (Q02763 23-1124): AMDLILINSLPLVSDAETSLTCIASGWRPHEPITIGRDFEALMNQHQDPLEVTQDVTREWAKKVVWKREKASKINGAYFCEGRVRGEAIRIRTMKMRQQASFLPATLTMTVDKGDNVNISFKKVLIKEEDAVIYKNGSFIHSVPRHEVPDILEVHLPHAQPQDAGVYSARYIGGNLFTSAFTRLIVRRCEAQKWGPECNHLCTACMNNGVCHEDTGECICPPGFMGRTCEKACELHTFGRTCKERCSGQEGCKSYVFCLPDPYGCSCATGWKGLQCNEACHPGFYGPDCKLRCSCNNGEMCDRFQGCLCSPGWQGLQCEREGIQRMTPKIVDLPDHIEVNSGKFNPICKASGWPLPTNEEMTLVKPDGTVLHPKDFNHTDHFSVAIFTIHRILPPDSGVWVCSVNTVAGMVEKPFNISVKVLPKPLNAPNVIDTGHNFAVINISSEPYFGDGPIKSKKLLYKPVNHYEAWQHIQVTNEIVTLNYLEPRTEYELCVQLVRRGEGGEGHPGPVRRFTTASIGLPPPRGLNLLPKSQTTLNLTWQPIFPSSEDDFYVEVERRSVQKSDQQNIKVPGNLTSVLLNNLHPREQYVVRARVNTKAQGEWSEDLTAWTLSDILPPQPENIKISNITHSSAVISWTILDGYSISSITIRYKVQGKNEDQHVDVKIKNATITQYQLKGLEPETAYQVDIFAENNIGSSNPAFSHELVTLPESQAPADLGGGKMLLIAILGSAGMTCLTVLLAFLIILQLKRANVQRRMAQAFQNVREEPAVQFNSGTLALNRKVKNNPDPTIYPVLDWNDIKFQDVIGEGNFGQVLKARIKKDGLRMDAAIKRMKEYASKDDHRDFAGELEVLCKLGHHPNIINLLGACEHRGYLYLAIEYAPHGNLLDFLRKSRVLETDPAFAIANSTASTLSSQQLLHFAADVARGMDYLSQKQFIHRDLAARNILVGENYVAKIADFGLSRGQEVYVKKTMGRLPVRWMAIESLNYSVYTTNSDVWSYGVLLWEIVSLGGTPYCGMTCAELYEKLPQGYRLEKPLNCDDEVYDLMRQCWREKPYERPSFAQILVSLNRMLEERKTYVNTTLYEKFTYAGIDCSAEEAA
T36 sequence (P29597 871-1187 limits assumed): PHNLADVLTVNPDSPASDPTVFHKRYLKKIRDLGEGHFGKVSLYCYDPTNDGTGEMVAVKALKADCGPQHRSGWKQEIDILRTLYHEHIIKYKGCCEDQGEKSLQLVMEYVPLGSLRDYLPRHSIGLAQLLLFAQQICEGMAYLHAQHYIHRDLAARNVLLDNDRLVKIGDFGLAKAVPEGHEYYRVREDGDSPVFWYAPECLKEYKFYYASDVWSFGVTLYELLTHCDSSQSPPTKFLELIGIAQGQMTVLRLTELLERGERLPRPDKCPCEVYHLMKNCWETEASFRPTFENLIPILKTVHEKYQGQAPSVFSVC

**Q.** Which Score (AAK1) does the source give for `COc1cc(/C=C2\N=C(N)NC2=O)ccc1O` [Polyandrocarpamine A] here?
**A.** 100

**Q.** What about the Score [1] of the same compound?
**A.** 100

**Q.** What about the Score (ACVR1B) of the same compound?
**A.** 81

**Q.** And the Score (AURKB)?
**A.** 100

**Q.** And the Score (BMPR1A)?
**A.** 100

**Q.** And the Score (BRK)?
**A.** 100

**Q.** What about the Score (BRSK1) of the same compound?
**A.** 100

**Q.** And the Score (CAMKK1)?
**A.** 100

**Q.** What about the Score (CDK11) of the same compound?
**A.** 100

**Q.** And the Score (CDKL3)?
**A.** 100

**Q.** What about the Score (CSNK1A1L) of the same compound?
**A.** 100

**Q.** And the Score (CSNK1G1)?
**A.** 100

**Q.** And the Score (DLK)?
**A.** 100

**Q.** What about the Score (DRAK1) of the same compound?
**A.** 42

**Q.** And the Score (EGFR(T790M))?
**A.** 93

**Q.** What about the Score (ERK4) of the same compound?
**A.** 100

**Q.** And the Score (IKK-beta)?
**A.** 100

**Q.** What about the Score (IRAK1) of the same compound?
**A.** 28

**Q.** What about the Score (JNK3) of the same compound?
**A.** 93

**Q.** And the Score (KIT(L576P))?
**A.** 99

**Q.** What about the Score (KIT(V559D,T670I)) of the same compound?
**A.** 85

**Q.** And the Score (LIMK2)?
**A.** 96

**Q.** What about the Score (MAP3K15) of the same compound?
**A.** 100

**Q.** What about the Score (MARK1) of the same compound?
**A.** 100

**Q.** What about the Score (MEK4) of the same compound?
**A.** 100

**Q.** And the Score (MKNK1)?
**A.** 63

**Q.** And the Score (MRCKB)?
**A.** 100

**Q.** What about the Score (MYLK4) of the same compound?
**A.** 96

**Q.** And the Score (NEK4)?
**A.** 100

**Q.** And the Score (STK36)?
**A.** 96

**Q.** And the Score (SYK)?
**A.** 100

**Q.** What about the Score (TIE2) of the same compound?
**A.** 98

**Q.** And the Score (TNK1)?
**A.** 100

**Q.** And the Score (TTK)?
**A.** 100

**Q.** What about the Score (TXK) of the same compound?
**A.** 100

**Q.** And the Score [2]?
**A.** 100

**Q.** And the Score (p38-alpha)?
**A.** 100
